In PMC3961306, “Comparison of the Cancer Gene Targeting and Biochemical Selectivities of All Targeted Kinase Inhibitors Approved for Clinical Use” (PLoS ONE, 2014):
Read-outs that look alike come from different tables or passages of the source.

Columns and labels:
[1] = target: panel of more than 300 wild-type and mutant kinases (313 kinase panel) (Homo sapiens, UniProt P22612); assay: Kinase profiling in a biochemical assay panel (mobility shift assays and ELISA), %-inhibition at 1 μM; selectivity entropy; details: kinase PKACγ; 1 μM
[2] = target: T1, panel of more than 300 wild-type and mutant kinases (313 kinase panel) (Homo sapiens, UniProt P51955); assay: as above; details: kinase NEK2; 1 μM
T1 sequence (P51955 1-445): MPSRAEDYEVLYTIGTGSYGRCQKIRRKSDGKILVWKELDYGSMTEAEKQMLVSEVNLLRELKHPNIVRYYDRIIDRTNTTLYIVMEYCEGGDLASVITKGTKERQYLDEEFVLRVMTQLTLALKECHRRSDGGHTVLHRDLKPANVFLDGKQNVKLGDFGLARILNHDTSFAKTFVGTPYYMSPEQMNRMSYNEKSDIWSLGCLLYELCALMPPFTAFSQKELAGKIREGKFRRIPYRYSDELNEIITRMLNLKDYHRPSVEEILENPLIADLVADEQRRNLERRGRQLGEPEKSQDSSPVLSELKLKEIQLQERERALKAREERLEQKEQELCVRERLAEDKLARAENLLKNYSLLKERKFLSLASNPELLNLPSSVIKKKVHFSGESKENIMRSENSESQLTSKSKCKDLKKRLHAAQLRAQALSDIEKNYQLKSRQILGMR

[3] = target: panel of more than 300 wild-type and mutant kinases (313 kinase panel) (Homo sapiens, UniProt Q8TDX7); assay: as above; details: kinase NEK7; 1 μM
[4] = target: T2, panel of more than 300 wild-type and mutant kinases (313 kinase panel) (Homo sapiens, UniProt Q16832); assay: as above; details: kinase DDR2; compound at 1 μM
T2 sequence (Q16832 22-855): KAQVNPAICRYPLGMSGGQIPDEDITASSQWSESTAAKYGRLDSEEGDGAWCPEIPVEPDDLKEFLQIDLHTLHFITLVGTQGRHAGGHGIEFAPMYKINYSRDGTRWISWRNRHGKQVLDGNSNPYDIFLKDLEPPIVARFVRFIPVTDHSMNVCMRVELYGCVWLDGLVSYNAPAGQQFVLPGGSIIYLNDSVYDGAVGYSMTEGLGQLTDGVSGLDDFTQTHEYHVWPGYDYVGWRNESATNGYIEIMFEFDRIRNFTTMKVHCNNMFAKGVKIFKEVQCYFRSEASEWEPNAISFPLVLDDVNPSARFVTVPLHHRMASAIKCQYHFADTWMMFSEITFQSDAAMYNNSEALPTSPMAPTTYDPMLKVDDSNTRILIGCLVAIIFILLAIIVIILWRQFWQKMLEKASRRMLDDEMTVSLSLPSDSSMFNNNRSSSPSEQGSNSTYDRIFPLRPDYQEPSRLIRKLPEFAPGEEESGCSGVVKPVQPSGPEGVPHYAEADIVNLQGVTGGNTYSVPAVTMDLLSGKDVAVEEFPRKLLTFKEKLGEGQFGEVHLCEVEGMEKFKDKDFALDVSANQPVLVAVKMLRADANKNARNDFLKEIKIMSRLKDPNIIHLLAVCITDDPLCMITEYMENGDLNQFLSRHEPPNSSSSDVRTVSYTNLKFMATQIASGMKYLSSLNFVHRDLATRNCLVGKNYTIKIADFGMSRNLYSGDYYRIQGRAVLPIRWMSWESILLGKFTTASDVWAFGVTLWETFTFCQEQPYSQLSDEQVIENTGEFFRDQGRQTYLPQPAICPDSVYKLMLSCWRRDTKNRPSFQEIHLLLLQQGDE

[5] = target: panel of more than 300 wild-type and mutant kinases (313 kinase panel) (Homo sapiens, UniProt P07947, T348I); assay: as above; details: kinase YES(T348I); compound at 1 μM
[6] = test system: forty-four human cancer cell lines; assay: Cell proliferation assay (ATPlite, 72 hours) in the 44 cell line Oncolines panel; format: cell-based; details: Homo sapiens
[7] = target: panel of more than 300 wild-type and mutant kinases (313 kinase panel) (Homo sapiens, UniProt P15056); assay: Kinase profiling in a biochemical assay panel (mobility shift assays and ELISA), %-inhibition at 1 μM; selectivity entropy; details: kinase BRAF; 1 μM compound
[8] = target: panel of more than 300 wild-type and mutant kinases (313 kinase panel) (Homo sapiens, UniProt P09619); assay: as above; details: kinase PDGFRβ; 1 μM
[9] = A 172, read-out: cell panel IC50, A-172
[10] = A204, cell line A-204, read-out: cell panel IC50, A-204
[11] = A498, read-out: cell panel IC50, A-498
[12] = A549, read-out: cell panel IC50, A-549
[13] = A-375, cell line A375, read-out: cell panel IC50, A375
[14] = A-427, read-out: cell panel IC50, A-427
[15] = AU565, read-out: cell panel IC50, AU-565
[16] = BT-549, read-out: cell panel IC50, BT-549
[17] = HCT-116, read-out: cell panel IC50, HCT-116
[18] = K562, read-out: cell panel IC50, K-562
[19] = LS174T, read-out: cell panel IC50, LS 174T
[20] = SHP77, cell line SHP-77, read-out: cell panel IC50, SHP-77
[21] = SW-620, cell line SW620, read-out: cell panel IC50, SW620
[22] = U2OS, cell line U-2 OS, read-out: cell panel IC50, U-2 OS
[23] = cell line J82, read-out: cell panel IC50, J82
[24] = cell line PA-1, read-out: cell panel IC50, PA-1
[25] = cell line SJCRH30, read-out: cell panel IC50, SJCRH30
[26] = cell line SR, read-out: cell panel IC50, SR
[27] = U-87 MG cell line, ATPlite, 72 hours, read-out: IC50 in cell proliferation assay (table S5 cellpanel data)
[28] = cell line 769-P, read-out: cell panel IC50, 769-P
[29] = cell line 786-0, read-out: cell panel IC50, 786-0
[30] = cell line ACHN, read-out: cell panel IC50, ACHN
[31] = cell line AN3 CA, read-out: cell panel IC50, AN3 CA
[32] = cell line BT-20, read-out: cell panel IC50, BT-20
[33] = cell line BxPC-3, read-out: cell panel IC50, BxPC-3
[34] = cell line C-33 A, read-out: cell panel IC50, C-33 A
[35] = cell line CAL 27, read-out: cell panel IC50, CAL 27
[36] = cell line CCRF-CEM, read-out: cell panel IC50, CCRF-CEM
[37] = cell line DLD-1, read-out: cell panel IC50, DLD-1
[38] = cell line FaDu, read-out: cell panel IC50, FaDu
[39] = cell line HCT-15, read-out: cell panel IC50, HCT-15
[40] = cell line Hs 578T, read-out: cell panel IC50, Hs 578T
[41] = cell line Jurkat E6.1, read-out: cell panel IC50, Jurkat E6.1
[42] = cell line LoVo, read-out: cell panel IC50, LoVo
[43] = cell line MG-63, read-out: cell panel IC50, MG-63
[44] = cell line MOLT-4, read-out: cell panel IC50, MOLT-4
[45] = cell line MeWo, read-out: cell panel IC50, MeWo
[46] = cell line NCI-H82, read-out: cell panel IC50, NCI-H82
[47] = cell line NCI-H460, read-out: cell panel IC50, NCI-H460
[48] = cell line OVCAR-3, read-out: cell panel IC50, OVCAR-3
[49] = cell line RPMI-7951, read-out: cell panel IC50, RPMI-7951
[50] = cell line SK-N-AS, read-out: cell panel IC50, SK-N-AS
[51] = cell line SW48, read-out: cell panel IC50, SW48
[52] = cell line SW480, read-out: cell panel IC50, SW480

Sequence of panel of more than 300 wild-type and mutant kinases (313 kinase panel) (Homo sapiens, UniProt P07947, T348I) (P07947 whole entry T348I): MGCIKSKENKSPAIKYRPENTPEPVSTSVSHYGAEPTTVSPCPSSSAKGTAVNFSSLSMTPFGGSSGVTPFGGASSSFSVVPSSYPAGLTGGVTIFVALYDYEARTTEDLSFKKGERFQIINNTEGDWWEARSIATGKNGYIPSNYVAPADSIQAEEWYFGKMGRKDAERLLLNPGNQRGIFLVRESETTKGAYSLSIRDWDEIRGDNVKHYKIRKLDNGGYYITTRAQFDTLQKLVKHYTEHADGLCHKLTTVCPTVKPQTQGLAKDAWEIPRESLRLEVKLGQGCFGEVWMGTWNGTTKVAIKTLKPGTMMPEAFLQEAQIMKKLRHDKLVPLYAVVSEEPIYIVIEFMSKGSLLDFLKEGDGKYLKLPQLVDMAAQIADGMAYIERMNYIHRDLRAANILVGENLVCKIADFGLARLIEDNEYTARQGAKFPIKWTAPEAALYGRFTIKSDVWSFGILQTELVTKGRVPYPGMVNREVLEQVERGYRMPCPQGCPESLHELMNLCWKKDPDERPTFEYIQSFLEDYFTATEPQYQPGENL
Sequence of panel of more than 300 wild-type and mutant kinases (313 kinase panel) (Homo sapiens, UniProt P15056) (P15056 whole entry, change not shown): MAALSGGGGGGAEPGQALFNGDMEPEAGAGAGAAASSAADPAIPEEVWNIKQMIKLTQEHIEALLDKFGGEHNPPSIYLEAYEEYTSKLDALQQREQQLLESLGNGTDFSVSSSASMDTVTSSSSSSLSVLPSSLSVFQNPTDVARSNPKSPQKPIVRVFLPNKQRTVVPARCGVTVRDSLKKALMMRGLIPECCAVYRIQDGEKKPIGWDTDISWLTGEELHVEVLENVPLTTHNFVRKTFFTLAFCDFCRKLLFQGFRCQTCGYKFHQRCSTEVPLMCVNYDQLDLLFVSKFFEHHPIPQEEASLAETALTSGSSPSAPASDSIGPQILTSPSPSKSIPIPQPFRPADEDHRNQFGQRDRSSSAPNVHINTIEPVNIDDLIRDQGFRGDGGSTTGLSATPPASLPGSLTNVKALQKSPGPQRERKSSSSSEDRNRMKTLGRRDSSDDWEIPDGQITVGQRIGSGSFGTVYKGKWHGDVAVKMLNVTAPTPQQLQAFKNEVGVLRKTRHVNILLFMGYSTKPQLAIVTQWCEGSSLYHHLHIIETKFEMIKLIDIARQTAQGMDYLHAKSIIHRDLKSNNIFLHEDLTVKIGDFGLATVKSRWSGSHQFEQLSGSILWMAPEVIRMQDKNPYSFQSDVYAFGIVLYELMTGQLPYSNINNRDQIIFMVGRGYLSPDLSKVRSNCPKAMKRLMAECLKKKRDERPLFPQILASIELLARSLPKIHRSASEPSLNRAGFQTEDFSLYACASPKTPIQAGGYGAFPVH

## CNC(=O)c1cc(Oc2ccc(NC(=O)Nc3ccc(Cl)c(C(F)(F)F)c3)c(F)c2)ccn1 [regorafenib]
[1]
  %-inhibition of PKACγ: -0.823%
[2]
  %-inhibition of NEK2: -6.65%
[3]
  %-inhibition of NEK7: -13%
[4]
  %-inhibition of DDR2: 102%
[5]
  %-inhibition of YES(T348I): 40%
[6]; [9]
  IC50: 3.95 µM
[6]; [10]
  IC50: 3.01 µM
[6]; [11]
  IC50: 3.41 µM
[6]; [12]
  IC50: 2.92 µM
[6]; [13]
  IC50: 3.56 µM
[6]; [14]
  IC50: 8.73 µM
[6]; [15]
  IC50: 0.687 µM
[6]; [16]
  IC50: 16.6 µM
[6]; [17]
  IC50: 3.51 µM
[6]; [18]
  IC50: 4.17 µM
[6]; [19]
  IC50: 3.76 µM
[6]; [20]
  IC50: > 31.6 µM
[6]; [21]
  IC50: 9.66 µM
[6]; [22]
  IC50: 3.08 µM
[6]; [23]
  IC50: 3.27 µM
[6]; [24]
  IC50: 2.96 µM
[6]; [25]
  IC50: 10.7 µM
[6]; [26]
  IC50: 3.1 µM
[6]; [27]
  IC50: 11.8 µM
[6]; [28]
  IC50: 2.9 µM
[6]; [29]
  IC50: 7.29 µM
[6]; [30]
  IC50: 1.82 µM
[6]; [31]
  IC50: 5.84 µM
[6]; [32]
  IC50: 3.93 µM
[6]; [33]
  IC50: 4 µM
[6]; [34]
  IC50: 1.02 µM
[6]; [35]
  IC50: 1.54 µM
[6]; [36]
  IC50: 9.54 µM
[6]; [37]
  IC50: 3.54 µM
[6]; [38]
  IC50: 1.62 µM
[6]; [39]
  IC50: 3.15 µM
[6]; [40]
  IC50: 22.6 µM
[6]; [41]
  IC50: 2.52 µM
[6]; [42]
  IC50: 2.7 µM
[6]; [43]
  IC50: 3.63 µM
[6]; [44]
  IC50: 3.31 µM
[6]; [45]
  IC50: 30.8 µM
[6]; [46]
  IC50: 3.58 µM
[6]; [47]
  IC50: 3.95 µM
[6]; [48]
  IC50: 3.63 µM
[6]; [49]
  IC50: 5.88 µM
[6]; [50]
  IC50: 6.43 µM
[6]; [51]
  IC50: 1.01 µM
[6]; [52]
  IC50: > 31.6 µM

## CCCS(=O)(=O)Nc1ccc(F)c(C(=O)c2c[nH]c3ncc(-c4ccc(Cl)cc4)cc23)c1F [vemurafenib]
[1]
  %-inhibition of PKACγ: -3%
[7]
  %-inhibition, BRAF: 99%
[2]
  %-inhibition of NEK2: -1%
[3]
  %-inhibition of NEK7: -3.56%
[4]
  %-inhibition of DDR2: 69%
[5]
  %-inhibition of YES(T348I): 4%
[8]
  %-inhibition of PDGFRβ: 33%
[6]; [9]
  IC50: > 31.6 µM
[6]; [10]
  IC50: > 31.6 µM
[6]; [11]
  IC50: 20.6 µM
[6]; [12]
  IC50: 29.2 µM
[6]; [13]
  IC50: 3.98 µM
[6]; [14]
  IC50: > 31.6 µM
[6]; [15]
  IC50: > 31.6 µM
[6]; [16]
  IC50: 26.9 µM
[6]; [17]
  IC50: > 31.6 µM
[6]; [18]
  IC50: 29.9 µM
[6]; [19]
  IC50: > 31.6 µM
[6]; [20]
  IC50: > 31.6 µM
[6]; [21]
  IC50: 31.6 µM
[6]; [22]
  IC50: > 31.6 µM
[6]; [23]
  IC50: > 31.6 µM
[6]; [24]
  IC50: 10.3 µM
[6]; [25]
  IC50: > 31.6 µM
[6]; [26]
  IC50: 8.86 µM
[6]; [27]
  IC50: > 31.6 µM
[6]; [28]
  IC50: > 31.6 µM
[6]; [29]
  IC50: 22.6 µM
[6]; [30]
  IC50: 24 µM
[6]; [31]
  IC50: > 31.6 µM
[6]; [32]
  IC50: > 31.6 µM
[6]; [33]
  IC50: 14.2 µM
[6]; [34]
  IC50: > 31.6 µM
[6]; [35]
  IC50: > 31.6 µM
[6]; [36]
  IC50: 23 µM
[6]; [37]
  IC50: > 31.6 µM
[6]; [38]
  IC50: > 31.6 µM
[6]; [39]
  IC50: 30.6 µM
[6]; [40]
  IC50: 24.8 µM
[6]; [41]
  IC50: 27.1 µM
[6]; [42]
  IC50: 31.3 µM
[6]; [43]
  IC50: > 31.6 µM
[6]; [44]
  IC50: 31.1 µM
[6]; [45]
  IC50: > 31.6 µM
[6]; [46]
  IC50: 30.4 µM
[6]; [47]
  IC50: 30.4 µM
[6]; [48]
  IC50: > 31.6 µM
[6]; [49]
  IC50: 20.9 µM
[6]; [50]
  IC50: > 31.6 µM
[6]; [51]
  IC50: > 31.6 µM
[6]; [52]
  IC50: 22.5 µM
